Test results: paper PMC9851200, “Multiparameter phenotypic screening for endogenous TFEB and TFE3 translocation identifies novel chemical series modulating lysosome function” (Autophagy, 2022)

Legend:
Type in all cases: binding
[1] = molecular target: T1, kinases (KINOMEscan panel) (Homo sapiens, UniProt O14976); conditions: kinase GAK; NEW KINOMEscan
T1 sequence (O14976 1-1311): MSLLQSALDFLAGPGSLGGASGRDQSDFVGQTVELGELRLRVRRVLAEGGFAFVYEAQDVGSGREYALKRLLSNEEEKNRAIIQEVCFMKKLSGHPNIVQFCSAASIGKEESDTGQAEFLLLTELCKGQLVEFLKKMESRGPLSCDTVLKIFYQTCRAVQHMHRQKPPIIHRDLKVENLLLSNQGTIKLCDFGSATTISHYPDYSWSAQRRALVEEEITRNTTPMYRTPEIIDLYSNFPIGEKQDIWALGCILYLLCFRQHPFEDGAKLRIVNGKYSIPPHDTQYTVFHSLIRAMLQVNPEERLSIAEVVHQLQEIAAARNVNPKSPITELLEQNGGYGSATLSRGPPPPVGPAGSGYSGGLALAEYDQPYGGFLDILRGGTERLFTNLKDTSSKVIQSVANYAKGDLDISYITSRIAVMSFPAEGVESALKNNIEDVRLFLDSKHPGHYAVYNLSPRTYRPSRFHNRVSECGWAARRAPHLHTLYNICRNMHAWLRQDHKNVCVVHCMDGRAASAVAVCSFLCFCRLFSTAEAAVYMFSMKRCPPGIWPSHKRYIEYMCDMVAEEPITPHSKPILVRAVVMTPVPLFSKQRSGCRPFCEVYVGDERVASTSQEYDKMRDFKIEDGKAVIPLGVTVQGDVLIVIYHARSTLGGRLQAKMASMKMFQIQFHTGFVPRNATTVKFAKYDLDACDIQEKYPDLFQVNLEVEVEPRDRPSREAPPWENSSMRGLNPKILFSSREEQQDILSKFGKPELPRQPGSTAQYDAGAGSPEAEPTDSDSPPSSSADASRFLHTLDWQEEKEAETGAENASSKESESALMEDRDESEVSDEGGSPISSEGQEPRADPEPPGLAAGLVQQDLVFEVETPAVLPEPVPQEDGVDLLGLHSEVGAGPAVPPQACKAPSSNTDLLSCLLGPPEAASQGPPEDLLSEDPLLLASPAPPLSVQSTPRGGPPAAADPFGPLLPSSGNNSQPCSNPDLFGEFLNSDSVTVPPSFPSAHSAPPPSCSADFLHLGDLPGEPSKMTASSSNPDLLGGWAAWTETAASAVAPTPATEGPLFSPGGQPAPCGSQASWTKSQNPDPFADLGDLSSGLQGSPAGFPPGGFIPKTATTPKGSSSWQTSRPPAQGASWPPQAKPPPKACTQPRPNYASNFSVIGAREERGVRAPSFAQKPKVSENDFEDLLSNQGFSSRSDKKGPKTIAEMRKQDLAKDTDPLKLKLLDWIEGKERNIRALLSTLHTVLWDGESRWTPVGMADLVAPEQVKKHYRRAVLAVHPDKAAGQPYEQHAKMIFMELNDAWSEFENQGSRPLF

[2] = molecular target: kinases (KINOMEscan panel) (Homo sapiens, UniProt P10721, L576P); conditions: KIT(L576P); NEW KINOMEscan
[3] = molecular target: kinases (KINOMEscan panel) (Homo sapiens, UniProt P42336, E545K); conditions: NEW KINOMEscan
[4] = molecular target: kinases (KINOMEscan panel) (Homo sapiens, UniProt P42338); conditions: PIK3CB; NEW KINOMEscan
[5] = molecular target: kinases (KINOMEscan panel) (Homo sapiens, UniProt Q9BWU1); conditions: kinase CDK19; NEW KINOMEscan
[6] = molecular target: T2, kinases (KINOMEscan panel) (Homo sapiens, UniProt Q9UL54); conditions: kinase TAOK2; NEW KINOMEscan
T2 sequence (Q9UL54 1-1235): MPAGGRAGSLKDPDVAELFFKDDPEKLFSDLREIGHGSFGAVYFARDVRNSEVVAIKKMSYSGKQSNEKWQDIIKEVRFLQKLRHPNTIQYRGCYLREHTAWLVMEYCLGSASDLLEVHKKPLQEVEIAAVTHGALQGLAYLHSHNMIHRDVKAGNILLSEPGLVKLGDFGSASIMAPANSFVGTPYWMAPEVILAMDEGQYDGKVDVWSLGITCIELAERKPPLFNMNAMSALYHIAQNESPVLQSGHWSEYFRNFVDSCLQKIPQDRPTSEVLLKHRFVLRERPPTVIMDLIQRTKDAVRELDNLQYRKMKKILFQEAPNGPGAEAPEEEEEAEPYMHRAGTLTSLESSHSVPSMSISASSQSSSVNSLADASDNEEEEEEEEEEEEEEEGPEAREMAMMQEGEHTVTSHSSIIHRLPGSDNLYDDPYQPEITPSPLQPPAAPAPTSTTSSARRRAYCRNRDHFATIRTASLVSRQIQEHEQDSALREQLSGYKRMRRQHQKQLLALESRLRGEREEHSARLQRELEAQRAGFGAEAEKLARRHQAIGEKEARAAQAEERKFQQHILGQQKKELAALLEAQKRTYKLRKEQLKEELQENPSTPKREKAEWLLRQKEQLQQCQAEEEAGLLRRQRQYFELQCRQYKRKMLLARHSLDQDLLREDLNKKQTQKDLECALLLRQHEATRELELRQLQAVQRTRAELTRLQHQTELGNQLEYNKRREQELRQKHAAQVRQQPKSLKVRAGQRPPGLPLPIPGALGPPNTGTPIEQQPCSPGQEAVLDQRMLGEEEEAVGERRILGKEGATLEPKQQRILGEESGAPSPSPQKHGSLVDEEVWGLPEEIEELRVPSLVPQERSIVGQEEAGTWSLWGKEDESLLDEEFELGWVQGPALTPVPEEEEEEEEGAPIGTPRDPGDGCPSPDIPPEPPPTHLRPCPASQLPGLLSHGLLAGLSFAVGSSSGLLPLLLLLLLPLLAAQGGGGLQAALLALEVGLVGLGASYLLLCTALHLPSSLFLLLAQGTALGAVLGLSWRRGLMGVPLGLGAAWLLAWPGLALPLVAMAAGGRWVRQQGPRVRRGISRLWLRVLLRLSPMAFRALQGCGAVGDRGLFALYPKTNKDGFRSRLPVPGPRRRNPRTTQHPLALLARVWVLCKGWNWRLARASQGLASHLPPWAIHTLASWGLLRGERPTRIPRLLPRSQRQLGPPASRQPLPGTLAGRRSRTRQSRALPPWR

[7] = molecular target: kinases (KINOMEscan panel) (Homo sapiens, UniProt Q9Y463); conditions: kinase DYRK1B; NEW KINOMEscan
Sequence of kinases (KINOMEscan panel) (Homo sapiens, UniProt Q9Y463) (Q9Y463 whole entry): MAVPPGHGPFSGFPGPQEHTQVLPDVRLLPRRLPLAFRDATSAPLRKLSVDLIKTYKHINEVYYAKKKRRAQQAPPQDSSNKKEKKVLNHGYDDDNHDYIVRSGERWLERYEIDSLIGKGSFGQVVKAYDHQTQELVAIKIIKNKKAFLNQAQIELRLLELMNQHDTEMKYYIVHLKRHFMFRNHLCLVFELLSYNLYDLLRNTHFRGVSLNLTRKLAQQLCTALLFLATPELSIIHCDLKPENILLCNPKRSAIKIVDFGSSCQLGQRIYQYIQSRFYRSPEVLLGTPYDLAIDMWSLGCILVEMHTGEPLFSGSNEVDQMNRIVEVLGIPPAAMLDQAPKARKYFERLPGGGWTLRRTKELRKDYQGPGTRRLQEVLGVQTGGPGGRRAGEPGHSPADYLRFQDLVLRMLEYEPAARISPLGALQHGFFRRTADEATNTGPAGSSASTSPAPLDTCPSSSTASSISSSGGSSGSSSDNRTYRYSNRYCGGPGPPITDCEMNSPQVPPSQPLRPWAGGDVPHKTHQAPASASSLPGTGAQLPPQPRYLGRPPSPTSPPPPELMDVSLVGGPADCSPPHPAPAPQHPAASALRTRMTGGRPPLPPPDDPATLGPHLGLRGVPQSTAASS

Sequence of kinases (KINOMEscan panel) (Homo sapiens, UniProt P42336, E545K) (P42336 whole entry E545K): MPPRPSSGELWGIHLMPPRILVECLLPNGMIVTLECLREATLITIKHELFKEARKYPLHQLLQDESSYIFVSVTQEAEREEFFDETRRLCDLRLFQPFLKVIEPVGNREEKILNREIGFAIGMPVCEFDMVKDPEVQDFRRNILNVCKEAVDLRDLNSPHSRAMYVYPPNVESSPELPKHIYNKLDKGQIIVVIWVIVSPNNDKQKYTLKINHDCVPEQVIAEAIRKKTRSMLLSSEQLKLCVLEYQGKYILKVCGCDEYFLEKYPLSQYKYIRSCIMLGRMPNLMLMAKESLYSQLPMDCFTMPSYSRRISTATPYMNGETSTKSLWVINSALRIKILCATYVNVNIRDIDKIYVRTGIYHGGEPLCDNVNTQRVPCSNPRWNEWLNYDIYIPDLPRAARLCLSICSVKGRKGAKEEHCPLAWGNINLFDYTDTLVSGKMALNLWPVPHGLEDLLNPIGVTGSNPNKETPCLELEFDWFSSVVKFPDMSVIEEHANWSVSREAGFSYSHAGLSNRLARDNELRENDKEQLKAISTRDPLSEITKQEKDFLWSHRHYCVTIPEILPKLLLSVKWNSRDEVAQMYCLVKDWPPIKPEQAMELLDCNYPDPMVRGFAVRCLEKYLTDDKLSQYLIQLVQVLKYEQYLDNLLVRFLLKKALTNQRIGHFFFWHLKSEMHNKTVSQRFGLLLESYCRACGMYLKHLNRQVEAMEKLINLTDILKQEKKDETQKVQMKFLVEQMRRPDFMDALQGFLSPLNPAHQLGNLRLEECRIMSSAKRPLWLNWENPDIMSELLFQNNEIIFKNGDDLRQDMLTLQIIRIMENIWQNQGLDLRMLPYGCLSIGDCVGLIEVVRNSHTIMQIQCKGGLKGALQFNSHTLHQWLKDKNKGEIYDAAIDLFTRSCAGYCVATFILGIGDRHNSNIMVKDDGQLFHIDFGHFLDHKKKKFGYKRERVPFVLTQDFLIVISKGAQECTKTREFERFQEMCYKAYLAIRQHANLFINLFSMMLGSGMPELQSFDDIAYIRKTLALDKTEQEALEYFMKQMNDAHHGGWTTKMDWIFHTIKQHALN
Sequence of kinases (KINOMEscan panel) (Homo sapiens, UniProt Q9BWU1) (Q9BWU1 whole entry): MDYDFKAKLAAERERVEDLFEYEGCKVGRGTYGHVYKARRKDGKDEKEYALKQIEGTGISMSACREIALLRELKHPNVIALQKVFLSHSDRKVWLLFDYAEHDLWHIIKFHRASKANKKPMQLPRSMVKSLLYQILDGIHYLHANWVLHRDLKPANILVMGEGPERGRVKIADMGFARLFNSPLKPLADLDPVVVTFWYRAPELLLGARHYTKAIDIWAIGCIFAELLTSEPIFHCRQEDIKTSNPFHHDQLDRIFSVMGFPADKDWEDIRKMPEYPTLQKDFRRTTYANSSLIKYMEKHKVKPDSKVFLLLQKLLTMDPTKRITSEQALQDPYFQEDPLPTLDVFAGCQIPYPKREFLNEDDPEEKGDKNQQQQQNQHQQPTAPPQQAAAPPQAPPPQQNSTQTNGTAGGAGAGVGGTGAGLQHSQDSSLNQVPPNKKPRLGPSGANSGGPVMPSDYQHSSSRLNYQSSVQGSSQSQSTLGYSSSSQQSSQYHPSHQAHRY
Sequence of kinases (KINOMEscan panel) (Homo sapiens, UniProt P10721, L576P) (P10721 26-976 L576P): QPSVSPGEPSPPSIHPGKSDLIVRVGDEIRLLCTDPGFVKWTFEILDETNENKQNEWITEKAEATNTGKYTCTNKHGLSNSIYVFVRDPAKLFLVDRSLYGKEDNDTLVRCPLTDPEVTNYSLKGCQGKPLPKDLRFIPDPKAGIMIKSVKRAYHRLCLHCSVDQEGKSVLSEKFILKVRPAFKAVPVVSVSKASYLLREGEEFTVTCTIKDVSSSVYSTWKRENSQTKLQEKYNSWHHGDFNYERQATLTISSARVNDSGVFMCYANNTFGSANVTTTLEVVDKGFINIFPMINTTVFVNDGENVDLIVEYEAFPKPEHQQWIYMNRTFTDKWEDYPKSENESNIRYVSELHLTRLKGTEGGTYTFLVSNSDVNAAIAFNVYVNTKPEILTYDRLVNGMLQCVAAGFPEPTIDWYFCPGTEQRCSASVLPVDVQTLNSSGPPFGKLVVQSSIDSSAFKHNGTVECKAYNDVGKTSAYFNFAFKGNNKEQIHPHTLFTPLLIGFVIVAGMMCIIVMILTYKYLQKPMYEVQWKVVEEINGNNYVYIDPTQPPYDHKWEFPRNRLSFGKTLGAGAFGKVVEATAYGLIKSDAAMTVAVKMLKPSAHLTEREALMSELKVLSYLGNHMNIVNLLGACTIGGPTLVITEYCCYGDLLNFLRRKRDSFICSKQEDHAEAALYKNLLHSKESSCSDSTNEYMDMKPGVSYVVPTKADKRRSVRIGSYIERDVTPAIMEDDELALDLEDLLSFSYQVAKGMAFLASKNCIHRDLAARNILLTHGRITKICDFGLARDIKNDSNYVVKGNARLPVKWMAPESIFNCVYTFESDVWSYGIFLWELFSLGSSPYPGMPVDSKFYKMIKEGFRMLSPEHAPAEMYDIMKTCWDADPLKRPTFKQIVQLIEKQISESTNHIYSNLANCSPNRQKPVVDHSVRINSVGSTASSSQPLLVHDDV
Sequence of kinases (KINOMEscan panel) (Homo sapiens, UniProt P42338) (P42338 whole entry): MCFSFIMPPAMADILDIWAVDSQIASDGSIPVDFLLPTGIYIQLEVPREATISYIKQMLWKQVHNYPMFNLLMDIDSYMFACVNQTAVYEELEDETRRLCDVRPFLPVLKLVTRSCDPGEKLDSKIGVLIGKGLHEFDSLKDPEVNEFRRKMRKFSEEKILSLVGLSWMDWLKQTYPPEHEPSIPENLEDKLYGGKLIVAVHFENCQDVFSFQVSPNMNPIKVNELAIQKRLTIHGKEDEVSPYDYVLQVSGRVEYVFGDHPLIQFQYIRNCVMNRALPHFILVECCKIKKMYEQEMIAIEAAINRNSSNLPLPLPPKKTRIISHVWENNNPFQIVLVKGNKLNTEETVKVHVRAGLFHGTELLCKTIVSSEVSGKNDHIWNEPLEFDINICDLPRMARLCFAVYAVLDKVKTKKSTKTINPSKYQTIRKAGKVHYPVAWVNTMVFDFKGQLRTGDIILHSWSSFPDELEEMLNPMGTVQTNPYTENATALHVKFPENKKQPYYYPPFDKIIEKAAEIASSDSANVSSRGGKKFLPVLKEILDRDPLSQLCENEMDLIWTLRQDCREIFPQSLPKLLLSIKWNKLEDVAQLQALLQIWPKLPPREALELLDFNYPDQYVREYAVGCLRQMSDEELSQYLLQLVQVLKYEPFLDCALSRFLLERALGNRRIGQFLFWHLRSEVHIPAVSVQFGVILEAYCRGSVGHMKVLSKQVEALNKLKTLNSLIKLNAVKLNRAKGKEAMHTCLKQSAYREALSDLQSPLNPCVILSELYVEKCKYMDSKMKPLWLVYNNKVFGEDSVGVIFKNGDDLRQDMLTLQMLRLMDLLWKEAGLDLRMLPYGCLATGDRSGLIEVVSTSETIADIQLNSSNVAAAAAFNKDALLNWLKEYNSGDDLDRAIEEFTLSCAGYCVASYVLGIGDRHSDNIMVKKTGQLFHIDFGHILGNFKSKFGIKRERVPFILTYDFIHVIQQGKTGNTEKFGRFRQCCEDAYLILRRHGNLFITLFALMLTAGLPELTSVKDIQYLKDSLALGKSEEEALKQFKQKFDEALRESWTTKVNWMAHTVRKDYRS

SMILES | KINOMEscan GAK [1] | KINOMEscan KIT(L576P) [2] | KINOMEscan PIK3CA(E545K) [3] | KINOMEscan PIK3CB [4] | KINOMEscan CDK19 [5] | KINOMEscan TAOK2 [6] | KINOMEscan DYRK1B [7]
Cc1cccc(-c2nc(Nc3ccc4nn(C)cc4c3)c3ccccc3n2)n1 [NK167] | 0 | 3 | 67 | 0 | 24 | 19 | 12
Cc1cccc(-c2nc(N(C)c3ccc4ncsc4c3)c3ccccc3n2)n1 [NK-161] | 0 | 0 | 40 | 0 | 4 | 20 | 16
